From patent US20040229219A1 (priority 2003, published 2004)

What was measured:
[1] = test system: L2 cells
[2] = test system: HIV-1; conditions: cited from earlier work
[3] = test system: measles virus; conditions: cited from earlier work

For `CC[C@H](C)[C@H](NC(=O)[C@H](CC(C)C)NC(=O)[C@H](CC(C)C)NC(=O)[C@H](Cc1c[nH]c2ccccc12)NC(=O)[C@@H](NC(=O)[C@H](Cc1ccc(O)cc1)NC(=O)[C@H](Cc1c[nH]c2ccccc12)NC(=O)[C@@H]1CCCN1C(=O)[C@H](Cc1c[nH]c2ccccc12)NC(=O)[C@H](CCCCN)NC(=O)[C@@H](NC(=O)[C@H](Cc1ccc(O)cc1)NC(=O)[C@H](CCSC)NC(=O)[C@H](CCC(=O)O)NC(=O)[C@H](Cc1ccc(O)cc1)NC(=O)[C@@H](NC(=O)CNC(=O)[C@@H](NC(=O)[C@H](CCC(=O)O)NC(=O)[C@H](CCCCN)NC(=O)[C@H](CC(C)C)NC(=O)[C@H](CC(N)=O)NC(=O)[C@@H](NC(=O)[C@H](Cc1ccc(O)cc1)NC(=O)[C@H](CO)NC(=O)[C@H](CCC(=O)O)NC(=O)[C@H](CC(N)=O)NC(=O)[C@H](CC(C)C)NC(=O)[C@H](CCCCN)NC(=O)[C@H](CCCCN)NC(=O)[C@@H](NC(=O)[C@H](C)NC(=O)[C@H](CC(=O)O)NC(=O)[C@H](CCC(N)=O)NC(=O)[C@@H](NC(=O)[C@@H](N)CCCNC(=N)N)[C@@H](C)CC)[C@@H](C)CC)[C@@H](C)CC)C(C)C)[C@@H](C)O)C(C)C)C(C)C)C(=O)O` [SEQ ID NO: 52], the “non-specific cytotoxic effects of the peptide on cells (morphology)” value [1] was “normal morphology”.

In the case of enfuvirtide, the “concentration range that suppresses HIV-1 infection” value [2] is listed as “nanomolar range”.

For “carbobenzoxy derivative of phenylalanine-phenylalanine-glycine [z-FFG]”, the “activity against measles virus” value [3] is listed as “effective”.
